# Assay results taken from patent US9796742B2, “Kinase inhibitors” (Respivert Limited, priority 2012, dated 2017).
# Key:
# [1] = target: p38 MAPKα (Homo sapiens (Human), UniProt Q16539); assay: p38 MAPKα enzyme inhibition (FRET, Z-LYTE; Method 2); format: biochemical
# Method in brief: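 p38 MAPKα (2.5 μL of 200 ng/mL stock) preincubated 2 h at RT with compound, then kinase reaction 1 h at RT with readout via MAPKAP-K2 activation using a Z-LYTE FRET peptide. Protease development 1 h; coumarin/fluorescein emission ratio gives phosphorylation. % inhibition versus uninhibited control; IC50 from concentration-response curve.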
# [2] = target: Syk (Homo sapiens (Human), UniProt P43405); assay: Syk enzyme inhibition (FRET, Z-LYTE); format: biochemical
# Method in brief: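 Z-LYTE FRET peptide assay with enzyme preincubated with compound for 2 h at RT, then 1 h kinase reaction and 1 h protease development. ATP solutions were 800 μM for c-Src and 60 μM for Syk. Inhibition was taken from the coumarin/fluorescein emission ratio, and IC50 from concentration-response curves.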
# [3] = system: PBMCs; assay: LPS-induced TNFα/IL-8 release in PBMC cells; format: cell-based; settings: Homo sapiens, LPS-stimulated PBMCs
# Method in brief: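 Human PBMCs from healthy donors, isolated by density gradient, were pretreated with compound for 2 h and then stimulated with 1 ng/mL LPS (E. coli 0111:B4) for 24 h at 37° C, 5% CO2. Supernatant IL-8 and TNFα were measured by sandwich ELISA, and IC50 was taken from the dose-response curve.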
# [4] = system: PBMCs; assay: IL-2 and IFN gamma release in CD3/CD28 stimulated PBMC cells; format: cell-based; settings: Homo sapiens
# Method in brief: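 They were cultured with compound for 3 days. IL-2 and IFN-γ in supernatants were quantified by sandwich ELISA, and IC50 was derived from the dose-response curve.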
# [5] = system: HT29 cells; assay: IL-1β-induced IL-8 release in HT29 cells; format: cell-based; settings: Homo sapiens, HT-29, IL-1β-stimulated HT29 cells, read-out: IC50 Values for Inhibition of Cytokine Release, HT29 cells IL-8
# Protocol: HT29 cells, a human colon adenocarcinorna cell line, are plated in a 96 well plate (24 hrs) and pre-treated with compounds at the desired concentration for 2 hours before addition of 5 ng/mL of IL-1β (Abcam) for 24 hours. Supernatants are harvested for IL-8 quantification by Sandwich ELISA (Duo-set, R&D System). The IC50 is determined from the dose response curve.
# [6] = system: TNBS-induced colitis in mice; assay: TNBS-induced colitis in mice; format: in vivo
# Protocol: Non-fasted, 10-12 week old, male BDF1 mice are dosed by oral gavage twice daily with either vehicle (5 mL/kg), reference item (Budesonide 2.5 mg/kg) or test compound (1 or 5 mg/kg) one day before (Day −1) stimulation of the inflammatory response by treatment with 2,4,6-trinitrobenzenesuiphonic acid (TNBS) (15 mg/mL in 50% ethanol/50% saline). On Day 0 of the study TNBS (200 μL) is administered intra-colonically via a plastic catheter followed by BID dosing of the vehicle, reference or test compound for 2 or 4 days. During the study animals are weighed every day and stool observations are made and recorded as a score, based on stool consistency. At the time of sacrifice on Day 2 (or Day 4) the large intestine is removed and the length and weight recorded. Sections of the colon are taken for either MPO analysis to determine neutrophil infiltration or for histopathology involving scoring to determine disease severity.
# [7] = system: intestinal mucosa biopsies from ulcerative colitis patients; assay: Human biopsy assay (ex-vivo cytokine release); format: cell-based
# Protocol: Intestinal mucosa biopsies are obtained from the inflamed regions of the colon of IBD patients. The biopsy material is cut into small pieces (2-3 mm) and placed on steel grids in an organ culture chamber at 37° C. in a 5% CO2/95% O2 atmosphere in serum-free media. DMSO control or test compounds at the desired concentration are added to the tissue and incubated for 24 hr in the organ culture chamber. The supernatant is harvested for determination of IL-6, IL-8, IL-1β and TNFα levels by R&D ELISA. Percentage inhibition of cytokine release by the test compounds is calculated relative to the cytokine release determined for the DMSO control (100%).
# [8] = 1 μg/ml, 24 hours, DMSO control 100%
# Sequence of p38 MAPKα (Q16539 whole entry): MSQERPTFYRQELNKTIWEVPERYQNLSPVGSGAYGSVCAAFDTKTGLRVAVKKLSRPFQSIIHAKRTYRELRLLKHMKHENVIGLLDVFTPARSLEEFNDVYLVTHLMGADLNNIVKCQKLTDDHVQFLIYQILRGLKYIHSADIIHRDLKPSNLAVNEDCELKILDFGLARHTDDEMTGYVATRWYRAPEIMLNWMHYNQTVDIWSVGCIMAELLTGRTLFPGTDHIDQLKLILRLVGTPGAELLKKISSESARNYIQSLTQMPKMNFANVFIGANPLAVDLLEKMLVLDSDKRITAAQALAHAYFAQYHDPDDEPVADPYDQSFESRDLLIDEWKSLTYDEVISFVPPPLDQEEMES
compound,measurement,setting,value
"COCCOCCOCCOc1cc(Nc2nccc(Oc3ccc(NC(=O)Nc4cc(C(C)(C)C)nn4-c4cccc(CP(C)(C)=O)c4)c4ccccc34)n2)cc(OC)c1 [Example 60, 1-(3-(tert-Butyl)-1-(3-((dimethylphosphoryl)methyl)phenyl)-1H-pyrazol-5-yl)-3-(4-((2-((3-methoxy-5-(2-(2-(2-methoxyethoxy)ethoxy)ethoxy)phenyl)amino)pyrimidin-4-yl)oxy)-naphthalen-1-yl)urea]",IC50,[1],71 nM
same,IC50,[2],8 nM
same,IC50,"[3]; IL-8, read-out: IC50 Values for Inhibition of Cytokine Release, PBMCs IL-8",0.9 nM
same,IC50,"[3]; TNFα, read-out: IC50 Values for Inhibition of Cytokine Release, PBMCs TNFα",0.6 nM
same,IC50,"[4]; IFNγ, read-out: IC50 Values for Inhibition of Cytokine Release, PBMCs IFNγ",1.9 nM
same,IC50,"[4]; IL-2, read-out: IC50 Values for Inhibition of Cytokine Release, PBMCs IL-2",16 nM
same,IC50,[5],0.8 nM
same,TNBS Ulcer grade,"[6]; 5 mg/kg oral, conducted over 2 days, vehicle 3.6 ± 0.3 (exp. 1), 4.4 ± 0.2 (exp. 2)",3.6 ± 0.4
same,TNBS LP inflammation,"[6]; 5 mg/kg oral, conducted over 2 days, vehicle 3.9 ± 0.3 (exp. 1), 4.5 ± 0.2 (exp. 2)",2.8 ± 0.4
same,activity in in vivo model of colonic inflammation (histopathology analysis),[6]; conducted over 2 days,significant activity
same,inflammatory cell infiltrate in the reticular and laminar propria zone,[6]; dosed orally at 5 mg/kg,marked reduction
same,ulcer grade and epithelial repair compared to the vehicle control,[6]; dosed orally at 5 mg/kg,marked improvements
same,"cytokine (IL-1b, IL-6 and IL-8) release compared to the DMSO control","[7]; 1 μg/mL, 24 hours, biopsies from ulcerative colitis patients",significantly inhibited
same,IL-1b release from biopsies of UC patients,[7]; [8],1 ± 2%
same,IL-6 release from biopsies of UC patients,[7]; [8],0 ± 0%
same,IL-8 release from biopsies of UC patients,[7]; [8],2 ± 4%
same,anti-inflammatory effects in biopsies from ulcerative colitis (UC) patients,[7]; ex-vivo human biopsy model,significant anti-inflammatory effects
